Where “and” joins values, the source holds several entries; their conditions need not be identical. Identical values can stand only once. Entries after “also recorded” stand apart in the source; their conditions may differ.
Columns and labels:
[1] = biological target: pVHL19 (VCB complex: VHL with Elongin B and Elongin C) (Homo sapiens, UniProt P40337); experiment: ITC titration against VCB, short VHL isoform; format: binding; details: ITC; for Kd / ΔG / ΔH / α (cooperativity/avidity) / −TΔS: pVHL19; for n (stoichiometry): pVHL19, 25° C.
Sequence of pVHL19 (VCB complex: VHL with Elongin B and Elongin C) (P40337 54-213): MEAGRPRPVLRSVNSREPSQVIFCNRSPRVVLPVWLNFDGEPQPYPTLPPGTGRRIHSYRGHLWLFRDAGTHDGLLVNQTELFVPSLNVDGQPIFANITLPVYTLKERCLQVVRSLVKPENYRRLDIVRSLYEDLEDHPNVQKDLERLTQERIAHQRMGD
Sequence of pVHL19 (VCB complex: VHL with Elongin B and Elongin C) (Q15370 1-104 partner limits assumed): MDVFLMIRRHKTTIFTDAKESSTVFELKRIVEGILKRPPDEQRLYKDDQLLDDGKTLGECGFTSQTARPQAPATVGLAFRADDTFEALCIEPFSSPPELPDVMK
Sequence of pVHL19 (VCB complex: VHL with Elongin B and Elongin C) (Q15369 17-112 partner limits assumed): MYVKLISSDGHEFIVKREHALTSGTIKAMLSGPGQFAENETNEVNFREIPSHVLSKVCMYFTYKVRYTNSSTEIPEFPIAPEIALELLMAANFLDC
Description: Titrations were performed on an ITC200 micro-calorimeter (GE Healthcare). […] The final DMSO concentration was 0.15% v/v. VBC protein experiments were carried out in a buffer containing 20 mM Bis-tris propane, 150 mM NaCl, 1 mM TCEP, 0.15% v/v DMSO, pH 7.4. The titrations consisted of 19 injections of 2 μL compounds solution (150 μM, in the syringe) at a rate of 2 s/μL at 120 s time intervals into the VCB protein solution (20 μM, in the cell). An initial injection of compound solution (0.4 μL) was made and discarded during data analysis. All experiments were performed at 25° C., whilst stirring the syringe at 600 rpm. The data were fitted to a single binding site model to obtain the stoichiometry n, the dissociation constant Kd and the enthalpy of binding ΔH using the Microcal LLC ITC200 Origin software provided by the manufacturer.

[2] = biological target: T1, pVHL30 (long isoform of VHL) (Homo sapiens, UniProt P40337); experiment: Western blot of VHL levels in HeLa cells; format: cell-based
T1 construct: endogenous in cells; host or cells: HeLa
T1 sequence (P40337 whole entry, canonical isoform): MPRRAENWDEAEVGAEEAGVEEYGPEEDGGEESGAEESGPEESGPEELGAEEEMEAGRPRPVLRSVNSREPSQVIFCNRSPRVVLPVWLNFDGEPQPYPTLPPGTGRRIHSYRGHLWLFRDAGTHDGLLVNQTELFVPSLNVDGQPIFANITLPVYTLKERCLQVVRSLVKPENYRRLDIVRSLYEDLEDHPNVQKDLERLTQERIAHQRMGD
Description: (§1) For single time point treatment experiments, cells were transferred in 6-well plates with 5×10^5 cells per well in 2 ml media in order to achieve 80% confluence the following day. Stock concentrations of compounds were prepared by solubilizing the powder in 100% v/v DMSO to the final desired stock concentration.
(§2) On the day of treatment, all compound samples were prepared as 100-fold concentrated compound solution using DMEM just before treatment. The experiment samples (20 μL) were added to the 6 well plate containing 2 ml of media. The final DMSO concentration was 0.1% v/v. Cells were incubated at 37° C. and 5% CO2 for the desired time before harvesting.
(§3) For time dependent treatment, cells were transferred in 6-well plates with 3×10^5 cells per well in 2 ml media. Samples were prepared as detailed above or the single time point experiments. Treatment was conducted at given time points prior to harvest.
Cells were transferred in 6-well plates with 5×10^5 cells per well in 2 ml media in order to achieve 80% confluence the day after. At t=0, MLN4924 was added into the desired wells at 3 μM final concentration and 0.1% v/v of DMSO. DMSO (0.1% v/v final conc.) was added to the remaining wells in order to match identical conc. of vehicle in all wells. At t=3 h, MG 132 was added into the desired wells at 50 μM final conc. and 0.1% v/v of DMSO. DMSO (0.1% v/v final conc.) was added to the remaining wells in order to achieve the same conc. of vehicle in all the wells. […] DMSO (0.1% v/v final conc.) was added to the remaining wells in order to obtain the same conc. of vehicle in all the wells. The total final concentration of DMSO was therefore 0.3% v/v. Plates were incubated for 4 h at 37° C. and 5% CO2 before harvesting.
Cells were transferred in 6-well plates with 5×10^5 cells per well in 2 ml media in order to achieve 80% confluence the day after. […] Plates were incubated for the desired time at 37° C. and 5% CO2 before harvesting.
For this experiments, cells were transferred in 6-well plates with 5×10^5 cells per well in 2 ml media in order to achieve 80% confluence the day after. […] Plates were incubated for the desired time at 37° C. and 5% CO2 before harvesting.
(§4) Cells were lysed in lysis buffer (20 mM Tris pH 8, 150 mM NaCl, 1% Triton x100) and a protease inhibitor cocktail (Roche) per 10 ml buffer. For protein extracts, the dishes were placed on ice. The media was aspirated and the tissue layer washed twice with ice-cold phosphate buffer saline (PBS). Lysis buffer (120 μl) was added and the cells detached from the surface with a cell scraper. After removal of the insoluble fraction by centrifugation, the protein concentration of the supernatant was determined by Pierce™ Coomassie (Bradford) Protein Assay Kit. Protein extracts were fractionated by SDS-PAGE on 4-12% Tris-Acetate NuPage® Novex® (Life Technologies) polyacrylamide gels and transferred to a nitrocellulose membrane using wet transfer. The membrane was then blocked with 5% w/v Bovine serum albumin (BSA) in Tris-buffered saline (TBS) with 0.1% w/v Tween-20. For detecting proteins the following primary antibodies in the given concentrations were used: anti-β-Actin (Cell Signaling Technology, 4970S, 13E5) 1:2000, anti-VHL (Cell Signaling Technology, #68547) 1:1000, anti-Hif-1α (BD Biosciences, 610959, clone 54) 1:1000, anti-hydroxy-HIF-1α (Hyp564) (Cell Signaling Techonology; #3434) 1:1000, anti-PHD2 (Bethyl Laboratories; A300-322A) 1:1000, anti-PHD3 (Bethyl Laboratories; A300-327A) 1:1000, anti-CRBN (Proteintech; 11435-1-AP) 1:1000.
(§5) Following incubation with a horseradish peroxidase-conjugated secondary antibody (Cell Signaling Technology), the signal was developed using enhanced chemiluminescence (ECL) Western Blotting Detection Kit (Amersham) on Amersham Hyperfilm ECL film (Amersham).
Band quantification was performed using ImageJ software and reported as relative amount as ratio of the each protein band relative to the lane's loading control. […]

[3] = tested on: HIF-1α / hydroxylated HIF-1α (Hdy-HIF-1α); experiment: Western blot of HIF-1α and Hdy-HIF-1α levels in HeLa cells; format: cell-based, Human; details: HeLa, 1 μM, 10 h
Description: as §1, §2, §3, §4, §5
(§6) Band quantification was performed using ImageJ software and reported as relative amount as ratio of the each protein band relative to the lane's loading control. The values obtained were then normalized to 0.1% DMSO vehicle control.

[4] = biological target: T2, pVHL30 (Homo sapiens, UniProt P40337); experiment: Western blot of VHL levels in U2OS cells; format: cell-based; details: for profile of cellular activity: 10 h, 1 nM-100 μM; for cellular efficacy at longer time points / time of treatment to complete degradation of pVHL30: time course
T2 construct: endogenous in cells; host or cells: U2OS
T2 sequence (P40337 whole entry): as the sequence (P40337 whole entry, canonical isoform) above
Description: as §1, §2, §3, §4, §5, §6

[5] = biological target: VCB complex (Homo sapiens, UniProt P40337); experiment: Size exclusion chromatography of VCB complex formation; format: binding; details: SEC, VCB 50 μM, compound 30 μM
Sequence of VCB complex (P40337 54-213 limits assumed): as the sequence (P40337 54-213) above
Sequence of VCB complex (Q15370 1-104 partner limits assumed): as the sequence (Q15370 1-104 partner limits assumed) above
Sequence of VCB complex (Q15369 17-112 partner limits assumed): as the sequence (Q15369 17-112 partner limits assumed) above
Description: SEC experiments were carried out in a AKTA pure system (GE Healthcare) at room temperature. The oligomeric state of the VCB complex in solution was analyzed by gel filtration in a buffer containing 20 mM Bis-Tris (pH 7), 150 mM NaCl and 1 mM 1,4-dithiothreitol (DTT) using a Superdex 200 Increase 10/300 GL column (GE Healthcare) calibrated with globular proteins of known molecular weight (GE Healthcare, 28-4038-41/42). […] Sample volume for each injection was 200 μL, and the flow rate was 0.5 mL/min. Peak elution was monitored using ultraviolet absorbance at 280 nm.

[6] = biological target: T3, VCB (biotinylated VCB and His-VCB) (Homo sapiens, UniProt P40337); experiment: AlphaLISA proximity assay of ternary complex formation; format: binding; details: VCB 20 nM each, 0.5 to 200 nM Homo-PROTAC
T3 construct: His tag (printed 'Hiss-VCB'); biotin (chemical labelling with NHS-PEG4-biotin); on the other VCB population
T3 sequence (P40337 54-213 limits assumed): as the sequence (P40337 54-213) above
T3 sequence (Q15370 1-104 partner limits assumed): as the sequence (Q15370 1-104 partner limits assumed) above
T3 sequence (Q15369 17-112 partner limits assumed): as the sequence (Q15369 17-112 partner limits assumed) above
Description: The VCB complex was mixed with EZ-link NHS-PEG4-biotin (Thermo Scientific) in a 1:1 molar ratio and incubated at room temperature for 1 h. The reaction was quenched using 1 M Tris-HCl, pH 7.5, and unreacted NHS-biotin was removed with a PD-10 MiniTrap desalting column (GE Healthcare) equilibrated with 20 mM HEPES, pH 7.5, 150 mM NaCl and 1 mM DTT.
All assays were performed at room temperature in 384-well plates with a final assay volume of 25 μL per well; plates were sealed with transparent film between addition of reagents. All reagents were prepared as 5× stocks diluted in 50 mM HEPES, pH 7.5, 100 mM NaCl, 0.1% (w/v) bovine serum albumin and 0.02% (w/v) 3-[(cholamidopropyl)dimethylammonio]-1-propanesulfonate (CHAPS). Biotinylated VCB (20 nM final) and Hiss-VCB (20 nM final) were incubated with a range of Homo-PROTAC concentrations (0.5 to 200 nM; three-in-five serial dilution) for 1 h. Anti-His acceptor beads (PerkinElmer, 10 μg/mL final) were added and plates were incubated for another hour. Streptavidin-coated donor beads (PerkinElmer, 10 μg/mL final) were added and plates were incubated for a final 1 h. Plates were read on a PHERAstar FS (BMG Labtech) using an optic module with an excitation wavelength of 680 nm and emission wavelength of 615 nm. Intensity values were plotted against PROTAC concentration on a logo scale.

Row | Kd [1] | ΔG [1] | ΔH [1] | α (cooperativity/avidity) [1] | −TΔS [1] | n (stoichiometry) [1] | degradation of pVHL over time ([2]; time course, also longer time points) | profile of cellular activity [4] | cellular efficacy at longer time points [4] | time of treatment to complete degradation of pVHL30 [4] | AlphaLISA intensity signal / complex formation [6] | SMILES | HIF-1α level [3] | shift of VCB peak / ternary complex formation [5] | depletion/degradation of VHL (pVHL30) ([2]; 1 μM, 10 h) | protein levels of Hdy-HIF-1α [3]
1 | 41 ± 15 nM | -10.3 ± 0.2 kcal/mol | -6.9 ± 0.3 kcal/mol | 4 | -3.5 ± 0.5 kcal/mol | 0.98 ± 0.09 | Incomplete degradation | consistent profile of cellular activity | lost its cellular efficacy after 36 h | 2 h | negligible levels of complex formation | Cc1ncsc1-c1ccc(CNC(=O)[C@@H]2C[C@@H](O)CN2C(=O)[C@@H](NC(=O)COCCOCCOCCOCC(=O)N[C@H](C(=O)N2C[C@H](O)C[C@H]2C(=O)NCc2ccc(-c3scnc3C)cc2)C(C)(C)C)C(C)(C)C)cc1 [CM09, N^1,N^14-bis((S)-1-((2S,4R)-4-hydroxy-2-((4-(4-methylthiazol-5-yl)benzyl)carbamoyl)pyrrolidin-1-yl)-3,3-dimethyl-1-oxobutan-2-yl)-3,6,9,12-tetraoxatetradecanediamide] | slight increase | formation of a ternary complex eluting at identical retention volume |  | 
2 | 32 ± 5 nM | -10.2 ± 0.1 kcal/mol | -9.4 ± 0.1 kcal/mol | 6 | -0.8 ± 0.2 kcal/mol | 0.7 and 0.73 ± 0.01 |  | consistent profile of cellular activity | retained their efficacy | 2 h | negligible levels of complex formation | Cc1ncsc1-c1ccc(CNC(=O)[C@@H]2C[C@@H](O)CN2C(=O)[C@@H](NC(=O)COCCOCCOCCOCCOCC(=O)N[C@H](C(=O)N2C[C@H](O)C[C@H]2C(=O)NCc2ccc(-c3scnc3C)cc2)C(C)(C)C)C(C)(C)C)cc1 [CM10, N^1,N^17-bis((S)-1-((2S,4R)-4-hydroxy-2-((4-(4-methylthiazol-5-yl)benzyl)carbamoyl)pyrrolidin-1-yl)-3,3-dimethyl-1-oxobutan-2-yl)-3,6,9,12,15-pentaoxaheptadecanediamide] | slight increase | formation of a ternary complex eluting at identical retention volume | total knockdown; also recorded: complete depletion | detectable albeit low increase
